Reference: patent US11001850B2, “Constructs and methods for biosynthesis of cyclopamine” (priority 2014, dated 2021)

Tests used:
Format in all cases: biochemical, Veratrum californicum
[1] = tested on: CYP90B27 (cholesterol 22-hydroxylase); experiment: Substrate testing of CYP90B27 (cholesterol 22-hydroxylase) co-expressed with CPR in Sf9 cells; set-up: key to Production of a detectable product (substrate testing), CYP90B27: Production of a detectable product is indicated by a (+); details: for Production of a detectable product (substrate testing), CYP90B27: 7.5 μM substrate, crude Sf9 cell suspension with CPR, 1.25 mM NADPH, 30° C. for 2 hours, GC-MS or LC-MS/MS; for Hydroxylation of substrate by cholesterol 22-hydroxylase (VC2646), in words: Sf9 cells with CPR, GC-MS
Procedure: Compounds were prepared to 1 mM stock solutions of 100% DMSO and diluted with H2O.
(§1) Standards were obtained from Sigma Aldrich, Research Plus, and Avanti. For GC-MS analysis, 5 individual assays per substrate were pooled after incubation at 30° C. for 2 hours; one assay produced sufficient product for analysis by LC-MS/MS. Assay conditions were as follows: 80 μl S. frugiperda Sf9 cell suspension (obtained by re-suspension of 50 ml viral infected culture pellet in 3.5 ml of 100 mM tricine pH 7.4/5 mM thioglycolic acid), 60 mM potassium phosphate buffer pH 8, 1.25 mM NADPH, 7.5 μM substrate, and H2O in a total volume of 200 μl. Controls were performed with no enzyme and S. frugiperda Sf9 cells expressing an unrelated cytochrome P450, or CPR-only, for each assay.

[2] = tested on: CYP94N1 (22-hydroxycholesterol 26-hydroxylase/oxidase); experiment: Substrate testing of CYP94N1 (22-hydroxycholesterol 26-hydroxylase/oxidase) co-expressed with CPR in Sf9 cells; set-up: key to Production of a detectable product (substrate testing), CYP94N1: Production of a detectable product is indicated by a (+); details: for Hydroxylation of substrate by VC12709 (22-hydroxycholesterol 26-hydroxylase/oxidase), in words: Sf9 cells with CPR, GC-MS
Procedure: (§2) Each cytochrome P450 co-expressed with CPR in S. frugiperda Sf9 cells was subjected to individual enzyme assays with the compounds found in Table 6 to determine functionality. Compounds were prepared to 1 mM stock solutions of 100% DMSO and diluted with H2O.
as §1
Assay for GC-MS: Cytochrome P450 enzyme assay conditions were identical to those stated above using S. frugiperda Sf9 cell suspensions with the following modifications. First, 12 assays each containing 22-hydroxy-26-aminocholesterol 22-oxidase+CPR, 22-hydroxycholesterol 26-hydroxylase/oxidase+CPR, or control cytochrome P450+CPR and each with pure 22(R)-hydroxycholesterol were allowed to incubate overnight at 30° C. Like assays were pooled, extracted 3 times with 2 volumes ethyl acetate, dried under N2, and re-suspended in 180 μl of 25% DMSO. Extracts containing the enzymatic product of the 22-hydroxycholesterol 26-hydroxylase/oxidase+CPR and 22(R)-hydroxycholesterol were divided equally and used as substrate for 22-hydroxy-26-aminocholesterol 22-oxidase+CPR and control cytochrome P450+CPR. Extracts containing the enzymatic product of 22-hydroxy-26-aminocholesterol 22-oxidase+CPR and 22(R)-hydroxycholesterol were divided and used as substrate in 6 assays containing 22-hydroxycholesterol 26-hydroxylase/oxidase+CPR and 6 assays containing control cytochrome P450+CPR. Control P450+CPR assay was run in parallel, treated identically and added to another control P450 assay. Refer to FIG. 1A for an overview of the experiment. Assays were allowed to incubate for 20 min at 30° C. then stopped by addition of 20 μl of 20% TCA with vortexing. Like assays were pooled, extracted, derivatized, and analyzed by GC-MS using the method stated above.

[3] = tested on: CYP90G1 (22-hydroxy-26-aminocholesterol 22-oxidase); experiment: Substrate testing of CYP90G1 (22-hydroxy-26-aminocholesterol 22-oxidase) co-expressed with CPR in Sf9 cells; set-up: key to Production of a detectable product (substrate testing), CYP90G1: Production of a detectable product is indicated by a (+); details: for Production of a detectable product (substrate testing), CYP90G1: 7.5 μM substrate, crude Sf9 cell suspension with CPR, 1.25 mM NADPH, 30° C. for 2 hours, GC-MS or LC-MS/MS; for Oxidation of the 22-hydroxy position of substrate by VC13284 (22-hydroxy-26-aminocholesterol 22-oxidase), in words: Sf9 cells with CPR, GC-MS / LC-MS/MS
Procedure: as §2, §1

SMILES	Production of a detectable product (substrate testing), CYP90B27 [1]	Hydroxylation of substrate by cholesterol 22-hydroxylase (VC2646), in words [1]	Production of a detectable product (substrate testing), CYP94N1 ([2]; 7.5 μM substrate, crude Sf9 cell suspension with CPR, 1.25 mM NADPH, 30° C. for 2 hours, GC-MS or LC-MS/MS)	Hydroxylation of substrate by VC12709 (22-hydroxycholesterol 26-hydroxylase/oxidase), in words [2]	Production of a detectable product (substrate testing), CYP90G1 [3]	Oxidation of the 22-hydroxy position of substrate by VC13284 (22-hydroxy-26-aminocholesterol 22-oxidase), in words [3]
CC(C)CCC[C@@H](C)[C@H]1CC[C@H]2[C@@H]3[C@@H](O)C=C4C[C@@H](O)CC[C@]4(C)[C@H]3CC[C@]12C [7β-hydroxycholesterol]	+	hydroxylated	–	–	–	–
CC(C)CC[C@@H](O)[C@@H](C)[C@H]1CC[C@H]2[C@@H]3CC=C4C[C@@H](O)CC[C@]4(C)[C@H]3CC[C@]12C [22(R)-hydroxycholesterol]	+	–	+	found to hydroxylate	+	oxidizes the 22-hydroxy position
CC(CO)CCC(O)[C@@H](C)[C@H]1CC[C@H]2[C@@H]3CC=C4C[C@@H](O)CC[C@]4(C)[C@H]3CC[C@]12C (stereo partly shown) [22,26-dihydroxycholesterol]	–	–	–	–	+	oxidizes the 22-hydroxy position
CC(CN)CCC(O)[C@@H](C)[C@H]1CC[C@H]2[C@@H]3CC=C4C[C@@H](O)CC[C@]4(C)[C@H]3CC[C@]12C (stereo partly shown) [22-hydroxy-26-aminocholesterol]	–	–	–	–	–	oxidizes the 22-hydroxy position
CC(C)CCC(=O)[C@@H](C)[C@H]1CC[C@H]2[C@@H]3CC=C4C[C@@H](O)CC[C@]4(C)[C@H]3CC[C@]12C [22-keto-cholesterol]	–	–	–	unable to hydroxylate	–	–
C[C@@H](CO)CCC[C@@H](C)[C@H]1CC[C@H]2[C@@H]3CC=C4C[C@@H](O)CC[C@]4(C)[C@H]3CC[C@]12C [26-hydroxycholesterol]	+	hydroxylated	–	–	–	–
CC(C)CCC[C@@H](C)[C@H]1CC[C@H]2[C@@H]3CC=C4C[C@@H](O)CC[C@]4(C)[C@H]3CC[C@]12C [cholesterol]	+	added a hydroxyl group to the 22-position	–	not detected	–	–
